A melting point compilation (Tetko et al.; mined from patent text by program, amines drawn as free bases though some values may be those of a salt)

SMILES	melting point
CC(C)(C)c1nnc(-c2nn(-c3ccc(F)cc3F)c3c2C2CCC3C2)s1 (stereo unspecified)	109 to 111 °C
CCCCCCCCCCCCOc1ccc(C(C)=O)o1	66 to 67 °C
CNC(=O)N(OC(=O)Oc1ccccc1)c1ccc(Cl)c(Cl)c1	93 °C
CC(C)[C@H](OCc1ccccc1)[C@H]1[C@H]([N+](=O)[O-])[C@H](C(C)(C)C)N[C@@H]1C(=O)NCC(=O)O	119 to 120 °C
O=[N+]([O-])c1cc(CO)ccc1Sc1nccnc1Cl	110 to 113 °C
COc1ccc(C(=O)C=Cc2ccccc2F)cc1	92 to 93 °C
CCOC(=O)Cc1nsc(Nc2ccc(F)c(F)c2)n1	84 to 90 °C
Cc1cc(C=C2CCCC(=Cc3cc(C)c(O)c(C)c3)C2=O)cc(C)c1O	225 to 226 °C
CC1(C)CCC(C)(C)c2cc3c(cc21)C(=O)C=CC3=O	161 to 163 °C
CCOC(=O)/C=C/c1c[nH]c(-c2cccs2)c1	104 to 105 °C
CCN1C(=O)C(C)(C)C(=O)Nc2ccc(C=O)cc21	188 to 191 °C
CS(=O)(=O)c1ccc(-c2cnn(CCc3ccccc3)c(=O)c2-c2ccc(F)cc2)cc1	170 to 171 °C
CN(C)c1ccc2c3c(cccc13)C(=O)c1ccccc1-2	125 to 127 °C
COc1ccc(N2CCN(c3c(C)c(C)c4c(c3C)C(O)(c3ccc(OC)cc3)C(C)(C)O4)CC2)cc1 (stereo unspecified)	157 to 159 °C
CNc1ccc(N=O)cc1	115 to 117 °C
C[Si](C)(ON(Cc1ccccc1)Cc1ccccc1)ON(Cc1ccccc1)Cc1ccccc1	50 to 53 °C
Cc1nc(N2CCc3ccccc3CC2)c(C#N)c(=O)n1C	155 to 158 °C
CC(C)C1(C)NC(c2nc(-c3ccsc3)ccc2C(=O)O)=NC1=O (stereo unspecified)	253 to 257 °C
N#CCOc1ccc(-c2cc(O)c(SCCc3ccccc3)c(=O)o2)cc1	157 to 159 °C
CCCc1nc2ccc(NS(C)(=O)=O)cc2n1Cc1ccccc1Cl	191 to 193 °C
CN1C(=O)C(C(=O)Nc2ccc(Cl)cc2Oc2c(Cl)cccc2Cl)C(=O)N(C)C1=S	254 to 257 °C
CC(C)(C)[Si](OCc1ccc([N+](=O)[O-])cc1)(c1ccccc1)c1ccccc1	80 to 81 °C
CS(=O)(=O)Cc1cnc2ccccc2c1Cl	202 to 204 °C
C1CC(C23CSC(SC2)SC3)C1	112 to 114 °C
CCOC(=O)C(=CNC1CC1)C(=O)c1cc(F)c(F)c(OC)c1F	56 to 58 °C
COc1cc(-c2ccco2)c2oc(-c3ccc(OC)c(F)c3)nc2c1	155 °C

SMILES	melting point
NC(=O)CNC(=S)Nc1ccccc1	150 to 152 °C
O=c1c(O)c(CCCCCO)oc2ccccc12	111 to 112 °C
COC(=O)c1ccc2c(c1)Sc1ccc(F)cc1C(O)=C2	85 to 88 °C
CCNC(=O)Nc1ccc2c(c1)C(=O)N(CCO[N+](=O)[O-])CO2	142 to 144 °C
NC(=O)c1cnn2c1NCC=C2c1cccnc1	182 to 184 °C
O=S1(=O)N=CN(C2CCC2)c2cc(Cl)c(Cl)cc21	238 to 240 °C
NS(=O)(=O)C1Cc2ccccc2CC1=O (stereo unspecified)	145 to 146 °C
CC(=O)N1CCc2[nH]c3cc(-n4ccc(OCc5ccccc5)cc4=O)ccc3c2CC1	250 to 254 °C
CC1(C)OC2c3cc(F)ccc3N3CCC2(CC3)O1 (stereo unspecified)	120 to 122 °C
O=S(CBr)c1ccc(Cl)cc1 (stereo unspecified)	100 °C
CC(C)n1nc(-c2c(N)nc(N)nc2-c2ccccc2)ccc1=O	258 to 260 °C
CC1c2ccccc2Cn2cc3c(c21)C(=O)c1ccccc1C3=O (stereo unspecified)	215 to 218 °C
CSc1ccc(-c2coc3ccc(-c4nnc(N)o4)cc23)cc1Cl	232 to 233 °C
Cc1ccccc1-n1c(-c2sc(Nc3ccccc3)nc2C)nc2ccccc2c1=O	227 to 228 °C
O=C(c1cccnc1)c1cnc2c(cnn2Cc2ccco2)c1O	152 to 153 °C
CCCn1c(=O)c2[nH]c(/C=C/c3ccc(Cl)cc3)nc2n(CCC)c1=O	> 290 °C
Oc1ccc2cc(-c3csc(-c4ccccc4)n3)ccc2c1	194 to 197 °C
COC(=O)Cc1ccc(C(=C2CC(C)(C)CC(C)(C)C2)c2ccc(O)cc2)cc1	154 to 155 °C
O=S(=O)(NCCCCOc1ccc(-n2ccnc2)cc1)c1ccccc1	110 to 111 °C
Cc1cc(SCCc2cccc3sc(-c4ccc(C(F)(F)F)cc4)nc23)ccc1OCC(=O)O	97 to 100 °C
CCC(CC)c1ccc(C(F)(F)F)c2nc(Oc3c(C)cc(Cl)cc3Cl)n(C)c12	149 to 151 °C
ClCc1ccc(Oc2ccc3ccc(Oc4ccc(CCl)cc4)cc3c2)cc1	95 to 97 °C
COc1ccc(S(=O)(=O)N2C(=O)C(c3ccccc3OC)(N3CCC[C@H]3C(=O)OC(C)(C)C)c3cc(Cl)ccc32)c(OC)c1 (stereo partly specified)	136 °C
CC(C(=O)O)n1nnc2ccc(Oc3nn(C)c(C(F)(F)F)c3Cl)cc21 (stereo unspecified)	209 to 211 °C
CC(=O)c1ccc(OCCc2nc(-c3ccccc3)oc2C)cc1	70 to 71 °C
C#CCN(C(=O)c1cnccc1C(F)(F)F)S(=O)(=O)c1cccc(C)c1	111 to 114 °C

SMILES	melting point
O=C1c2ccc(SCc3ccccc3)cc2C(=O)c2cc3ccccc3cc21	200 to 203 °C
CC(C)c1ccc(Cn2nnnc2-c2ccc(OC(=O)C(C)(C)C)cc2)cc1	111 to 113 °C
COc1ccc(-c2nc3cc(F)ccc3s2)cc1OC(=O)c1cccc([N+](=O)[O-])c1	212 °C
COCCc1cc(O)ccc1N	82 °C
CSc1ccc(C=C(C(=O)O)c2ccc(F)cc2)cc1	136 to 138 °C
Clc1ccc2nc(NC3=NCCN3)[nH]c2c1	241 to 242 °C
O=C(O)CNC(=O)CCCc1ccccc1	99 to 101 °C
O=C(Cc1ccccc1)c1ccc(OCc2ccccc2)cc1O	106 to 108 °C
COCC1CN(c2ccc3cc(OCCS(C)(=O)=O)ccc3c2)C(=O)O1 (stereo unspecified)	128 to 129 °C
CCOC(=O)c1c(N(C(C)=O)C(C)=O)c2cccnc2n(CC)c1=O	133 to 135 °C
COCSc1nccn1-c1cccc(C2=Nc3ccc(-c4ccccc4F)cc3NC(=O)C2)c1	189 to 190 °C
CN1N=C(c2ccc3c(c2)CCC(=O)N3)C2CC2C1=O (stereo unspecified)	255 to 259 °C
Cc1ccc(Oc2ccccc2-n2cc(C(=O)O)cn2)c(O)c1	219 to 221 °C
CCC(O)c1ccc(-c2ccc(Cl)cc2)cc1 (stereo unspecified)	114 to 116 °C
Cn1c([N+](=O)[O-])cnc1-c1nc(CCl)cs1	160 to 162 °C
COc1c(C#Cc2ccccc2)c(=O)c2ccc(Cl)cc2[nH]c1=O	204 to 205 °C
O=C1CCc2cc(C(=O)[C@H]3C[C@H]3C(=O)O)ccc2N1 (relative stereo)	190 to 194 °C
Nc1cccc(Cn2c(-c3ccc(-c4cncnc4)cc3)ccc2-c2ccccc2Cl)n1	163 to 164 °C
CC(NC(=O)C(O)c1cc(F)cc(F)c1)C(=O)NC1C(=O)N(C)c2ccccc2N(c2ccccc2)C1=O (stereo unspecified)	212 to 213 °C
COc1ccc(/C=C/c2cc(F)cc(F)c2)cc1	108 to 110 °C
COc1ccc(C2=NN(c3ccc(CCO)cc3)C(=O)[C@H]3CC=CC[C@@H]23)cc1OC (relative stereo)	137 to 139 °C
O=C(C=Cc1ccc(NS(=O)(=O)c2ccccc2)cc1)NO	189 to 191 °C
CCN1N=C(c2ccc(F)cc2)c2cc(F)ccc2CS1(=O)=O	148 to 151 °C
O=C(O)Cc1c(-c2ccccc2)nn(-c2ccc(Cl)cc2)c1-c1ccccc1	193 to 194 °C
CC1(C)C=C(c2c(N)c(=O)c2=O)c2cc(C#N)ccc2O1	> 250 °C
CS(=O)c1ncc2ccc(=O)n(C3CCCC3)c2n1 (stereo unspecified)	170 to 173 °C

SMILES	melting point
CC(C)(C)OC(=O)N1CCC(Cn2cc(S(=O)(=O)c3ccccc3)c3ccccc32)CC1	181 to 182 °C
CN(C(=S)N[C@@H](Cc1ccc(NC(=O)c2c(Cl)cncc2Cl)cc1)C(=O)O)c1ccccc1Cc1ccccc1	198 °C
C=CCN1CCN(CCC(=O)N2c3ccccc3C(=O)Nc3cccnc32)CC1	205 to 207 °C
CCOC(=O)c1nnnn1Cc1ccccc1[N+](=O)[O-]	90 to 92 °C
COc1ccnc(NC(N)=S)c1	214 to 217 °C
COC(=O)c1ccc2cc(C=O)ccc2c1	127 °C
CCNCc1ccc(O)c(C(CCN(C(C)C)C(C)C)c2ccccc2)c1 (stereo unspecified)	140 to 142 °C
CCOC(=O)COc1cc(C)sc1C#N	58 °C
CC(=O)CS(=O)CCc1ccc2c(c1)OCO2 (stereo unspecified)	82 to 84.5 °C
CN(Cc1ccc(NC(=O)C2=Cc3cc(-c4ccc(F)cc4)ccc3S(=O)(=O)CC2)cc1)C1CCOCC1	219 to 221 °C
COc1cc2c3c(cccc3c1Br)C(=O)N(O)C2=O	250 to 253 °C
CCNc1ncn(-c2ccccc2C)c(=O)n1	208 to 210 °C
CCSc1nnc(-c2ccccc2)n1Cc1ccc([N+](=O)[O-])cc1	108 °C
CNC(=O)C(Cc1ccc(OC)cc1)NC(=O)C(CC(C)C)C(S)CC(=O)NCC(=O)O (stereo unspecified)	228 to 231 °C
CCc1cccc2c(/C=C(/C)C(=O)O)cc(OC)c(O)c12	127 to 128 °C
CCCCCCCCCCCCCCCCC(Br)CO (stereo unspecified)	39 to 39.5 °C
COC(=O)N(CC(=O)O)C(=O)c1c(OCC(F)(F)F)ccc2c(C(F)(F)F)c(OC)ccc12	186 to 187 °C
O=C1c2cc(OCc3ccc4ccccc4n3)ccc2OCC1Oc1cccnc1 (stereo unspecified)	174 to 175 °C
CC(Oc1cc(Oc2ccc(C(F)(F)F)cc2Cl)ccc1[N+](=O)[O-])C(=O)OCn1cccn1 (stereo unspecified)	75 °C
CCCc1ccc2c(=O)cc(C(=O)O)[nH]c2c1	> 240 °C
O=C1CCCC2=C1C(c1ccc(Br)s1)C1=C(CCS1)N2 (stereo unspecified)	> 250 °C
O=C1c2ccc([N+](=O)[O-])cc2C(=O)N1CCSc1ccccc1	120 to 121 °C
O=C(O)c1cccc(-c2cccc3oc(Cc4cccc(C(F)(F)F)c4)nc23)c1	165 to 166 °C
